Experiment [1] has as its system K562. Put plainly: Cytotoxicity against human doxorubicin-resistant K562 cells after 6 hrs by MTT assay. Format: functional, cell-based. As to conditions: K562, 6 h. (In general: Formazan colour is commonly taken as a measure of viable cells.)
Experiment [2] deals with K562. Put plainly: Cytotoxicity against human K562 cells after 6 hrs by MTT assay. Format: functional, cell-based. Conditions: K562, 6 h.
Another experiment has as its system KB. Put plainly: Cytotoxicity against human KB cells after 48 hrs by MTT assay.
The next experiment concerns MCF7. Put plainly: Cytotoxicity against human MCF7 cells after 48 hrs by MTT assay. Conditions: MCF7, 48 h.
Experiment [3] can be described thus: Cytotoxicity against human KB-C2 cells after 48 hrs by MTT assay. Conditions: KB-C2, 48 h.
Experiment [4] is described as follows: Cytotoxicity against human colchicine-resistant KB-C2 cells after 48 hrs by MTT assay. Conditions: KB-C2, 48 h.

≈ marks a conversion by molar mass, not a printed value. Bounds are passed on as bounds.

The IC50 is the midpoint of a concentration-inhibition curve. For the molecule `COc1cccc2c1C(=O)c1c(O)c3c(c(O)c1C2=O)C[C@@](O)(C(C)=O)C[C@@H]3O[C@H]1C[C@H](N)[C@H](O)[C@H](C)O1` [DAUNORUBICIN], the IC50 is 8.5 mg/L (≈ 16.1 µM) in the experiment on K562 [1]; 1.49 mg/L (≈ 2.82 µM) in the experiment on K562 [2]; 0.45 mg/L (≈ 0.853 µM) in the experiment on KB; 0.033 mg/L (≈ 0.0626 µM) in the experiment on MCF7; 7.9 mg/L (≈ 15 µM) in experiment [3]; 11.6 mg/L (≈ 22 µM) in experiment [4].
Consider `C=C[C@@H]1CC[C@@H]2[C@]3(CC[C@]4(C)[C@@H]([C@H](C)CC/C=C(/C)C(=O)O)CC[C@@]24C)C[C@]13CCC(=O)O` [SINOCALYCANCHINENSIN A], for which the IC50 turned out to be 38.9 mg/L (≈ 85.2 µM) in the experiment with K562 [1]; 29.9 mg/L (≈ 65.5 µM) in the experiment with K562 [2]; 30.7 mg/L (≈ 67.2 µM) in the experiment with KB; 61.6 mg/L (≈ 135 µM) with MCF7; 30.4 mg/L (≈ 66.6 µM) in experiment [3]; 33.4 mg/L (≈ 73.1 µM) in experiment [4].
As for `C=C[C@@H]1CC[C@@H]2[C@]3(CC[C@]4(C)[C@@H]([C@H](C)CC/C=C(/C)C(=O)O)CC[C@@]24C)C[C@]13CCC(=O)OC` [SINOCALYCANCHINENSIN B], the IC50 was found to be 17.6 mg/L (≈ 37.4 µM) with K562 [1]; 16.5 mg/L (≈ 35.1 µM) in the experiment with K562 [2]; 20.9 mg/L (≈ 44.4 µM) with KB; 35.7 mg/L (≈ 75.8 µM) with MCF7; 22.2 mg/L (≈ 47.2 µM) in experiment [3]; 18.9 mg/L (≈ 40.2 µM) in experiment [4].
Consider `C=C[C@@H]1CC[C@@H]2[C@]3(CC[C@]4(C)[C@@H]([C@H](C)CC/C=C(/C)C(=O)O)CC[C@@]24C)C[C@]13CCC(=O)OC/C=C(\C)CCC[C@H](C)CCC[C@H](C)CCCC(C)C` [SINOCALYCANCHINENSIN C], for which the 50% inhibitory concentration (IC50) (in the experiment on K562 [2]; in the experiment with KB; in the experiment with MCF7; in experiment [3]; in experiment [4]) was over 100 mg/L throughout.
As for `C=C[C@@H]1CC[C@@H]2[C@]3(CC[C@]4(C)[C@@H]([C@H](C)[C@H]5CC=C(C)C(=O)O5)CC[C@@]24C)C[C@]13CCC(=O)O` [SINOCALYCANCHINENSIN D], the IC50 in the experiment with K562 [1] was determined as 7 mg/L (≈ 15.4 µM); in the experiment on K562 [2], 16.7 mg/L (≈ 36.7 µM); in the experiment on KB, 31.7 mg/L (≈ 69.7 µM); in the experiment with MCF7, 39.2 mg/L (≈ 86.2 µM); in experiment [3], 26.4 mg/L (≈ 58.1 µM); in experiment [4] it was 25.6 mg/L (≈ 56.3 µM).
Regarding `C=C[C@@H]1CC[C@@H]2[C@]3(CC[C@]4(C)[C@@H]([C@H](C)[C@H]5CC=C(C)C(=O)O5)CC[C@@]24C)C[C@]13CCC(=O)OC` [SINOCALYCANCHINENSIN E], the IC50 was 20.5 mg/L (≈ 43.7 µM) in the experiment on K562 [1]; 22.4 mg/L (≈ 47.8 µM) in the experiment on K562 [2]; 62.2 mg/L (≈ 133 µM) in the experiment on KB; over 100 mg/L in the experiment on MCF7; 49.2 mg/L (≈ 105 µM) in experiment [3]; 1.51 mg/L (≈ 3.22 µM) in experiment [4].
In the case of `COC(=O)[C@@H](C)[C@@H]1CC[C@@H]2[C@]3(CC[C@]4(C)[C@@H]([C@H](C)CC/C=C(/C)C(=O)O)CC[C@@]24C)C[C@]13CCOC(C)=O` [SINOCALYCANCHINENSIN F], the IC50 in the experiment with K562 [1] was determined as 19.5 mg/L (≈ 36.7 µM); in the experiment with K562 [2], 13.2 mg/L (≈ 24.9 µM); in the experiment on KB it was 16.6 mg/L (≈ 31.3 µM); in the experiment with MCF7 it was 33.8 mg/L (≈ 63.7 µM); in experiment [3], 21.7 mg/L (≈ 40.9 µM); in experiment [4], 17.5 mg/L (≈ 33 µM).
Take `C/C(=C/CC[C@@H](C)[C@H]1CC[C@@]2(C)[C@@H]3CC[C@H]4[C@H](C)C(=O)CC[C@@]45C[C@@]35CC[C@]12C)C(=O)O` [SINOCALYCANCHINENSIN G]: the IC50 in the experiment on K562 [1] was 7.3 mg/L (≈ 16.6 µM); with K562 [2], 14.8 mg/L (≈ 33.6 µM); with KB, 19.9 mg/L (≈ 45.2 µM); in the experiment on MCF7, 23.7 mg/L (≈ 53.8 µM); in experiment [3], 21.6 mg/L (≈ 49 µM); in experiment [4], 21.4 mg/L (≈ 48.6 µM).
As for `C/C(=C\CC[C@@H](C)[C@H]1CC[C@@]2(C)[C@@H]3CC[C@H]4[C@H](C)C(=O)CC[C@@]45C[C@@]35CC[C@]12C)C(=O)O` [SINOCALYCANCHINENSIN H], the IC50 was found to be 19.4 mg/L (≈ 44 µM) in the experiment on K562 [1]; 14.8 mg/L (≈ 33.6 µM) in the experiment with K562 [2]; 18.6 mg/L (≈ 42.2 µM) in the experiment on KB; 18.6 mg/L (≈ 42.2 µM) in the experiment with MCF7; 18.8 mg/L (≈ 42.7 µM) in experiment [3]; 17.2 mg/L (≈ 39 µM) in experiment [4].

The values are drawn from ChEMBL document CHEMBL1773024, “New 29-nor-cycloartanes with a 3,4-seco- and a novel 2,3-seco-structure from the leaves of Sinocalycanthus chinensis” (Bioorg Med Chem, 2011).
